Assay results as given in paper PMC8582824, “Targeting DDX3X Helicase Activity with BA103 Shows Promising Therapeutic Effects in Preclinical Glioblastoma Models” (Cancers, 2021).

Columns and labels:
[1] = system: U87 cells; assay: MTS cytotoxicity assay, U87 cells; assay type: cell-based; details: for mean absorbance at 490 nm (MTS): 72 h
Experimental: For CellTiter 96® Aqueous One Solution Cell Proliferation Assay (MTS) (Promega, Madison, WI, USA), cells were seeded at 5 × 10^3 per well in 96-well plates in quadruplicate together a control with no cells to evaluate the background. After 24 h, the culture medium was removed, and fresh medium containing increasing concentrations of chemical compounds was added to cells. […] DMSO was the vehicle used for dilution of the compounds, and its final concentration on cells was less than 0.2%. Medium-only containing wells were included as controls. Cells were incubated with compounds at different concentrations for 72 h, then, 20 µL of CellTiter 96® AQueous One Solution Reagent was added into each well. After 3 h at 37 °C in a humidified, 5% CO2 atmosphere, the absorbance at 492 nm was recorded using an EZREAD400 (Biochrom, Cambridge, United Kingdom) plate reader. The average 490 nm absorbance from the “no cell” control wells was subtracted from all other values to yield background-corrected absorbance. Dose–response curves and CC50 values have been calculated by plotting the absorbance data as a function of inhibitor concentrations and fitting the data by least-squares nonlinear regression, according to the method of Marquardt–Levenberg, with the computer program GraphPad Prism 6.0.
Cells were incubated with a scalar concentration of DDX3X inhibitors, and after 72 h of treatment, cell viability was assessed by cytotoxicity assay. […] Compounds 4, 6, and BA103 were also evaluated against BJ primary fibroblasts; compound 4 has a cytotoxicity value of 84.7 μM; on the contrary, compounds 6 and BA103 were not toxic up to 200 μM concentration. This further excluded a possible nonspecific cytotoxic effect. […] Due to its interesting profile, compound BA103 was further tested against additional pulmonary (A549), breast (MDA-MB-231), colorectal (HCT-116), osteosarcoma (U2OS), rhabdomyosarcoma (RD18), GBM (DBTRG, U87, and U251) and medulloblastoma (DAOY) cancer cell lines.
Figure 5 Cytotoxicity of selected compounds. Compounds were assayed on DU-145, PC3, HepG2, Huh-7, HN6, U251, and U87 cell lines. The concentration of the compound, which reduced the number of viable cells by 50% (CC50), was determined by dose–response curve, and the mean CC50 value for each cell line was calculated by triplicate assays (raw data from U87 and U251 cells with dose–response curves used for the calculation of CC50 in Table S1 and Figure S2).
Table S1: Raw data of optical absorbance at 490 nm from MTS assay in U87 and U251 cells. Tables contain
means with SD of at least 5 different values that were used for preparation of figure 5.

[2] = Parallel artificial membrane permeability assay (PAMPA); assay type: in vitro ADME; details: for Papp at 5 h, 0.5 mM: pH 7.4, read-out: AppP (apparent permeability)
Experimental: Preliminary in vitro ADME analysis was performed to early evaluate the pharmacokinetic (PK) profile of our compounds (Figure 8). Aqueous solubility was calculated by LC-MS-MS analysis. An aliquot of 1 mg of compound was stirred for 24 h at 27 °C in 1 mL of water. The mixture was filtered, and the quantity of solubilized compound was determined. Passive permeability was determined using parallel artificial membrane permeability assay (PAMPA). Microsomal metabolic stability was determined by LC-UV-MS analysis by incubating compounds with human liver microsomes at 37 °C for 60 min (for details, see the Supporting Information).
Chemicals. All solvents, reagents, were from Sigma-Aldrich Srl (Milan, Italy). Dodecane was purchased from Fluka (Milan, Italy). Pooled Male Donors 20 mg mL-1 HLM were from BD Gentest-Biosciences (San Jose, California). Milli-Q quality water (Millipore, Milford, MA, USA) was used. Hydrophobic filter plates (MultiScreen-IP, Clear Plates, 0.45 μm diameter pore size), 96-well microplates, and 96-well UV-transparent microplates were obtained from Millipore (Bedford, MA, USA). […]
Parallel Artificial Membrane Permeability Assay (PAMPA):
Donor solution (0.5 mM) was prepared by diluting 1 mM dimethylsulfoxide (DMSO) compound stock solution using phosphate buffer (pH 7.4, 0.025 M). Filters were coated with 5 μL of a 1% (w/v) dodecane solution of phosphatidylcholine prepared from CHCl3 solution 10% w/v, for intestinal permeability. Donor solution (150 μL) was added to each well of the filter plate. To each well of the acceptor plate were added 300 μL of solution (50% DMSO in phosphate buffer). All compounds were tested in three different plates on different days. The sandwich was incubated for 5 h at room temperature under gentle shaking. After the incubation time, the plates were separated, and samples were taken from both receiver and donor sides and analyzed using LC with UV detection at 280 nm.
LC analysis were performed with a Varian Prostar HPLC system (Varian Analytical Instruments, USA) equipped with a binary pump with a manual injection valve and model Prostar 325 UV-VIS Detector.
Chromatographic separation were conducted using a Polaris C18-A column (150-4.6 mm, 5 μm particle size) at a flow rate of 0.8 mL min-1 with a mobile phase composed of 60% ACN/40% H2O.
Permeability (Papp) for PAMPA was calculated according to the following equation, obtained from Wohnsland and Faller and Sugano et al. equation with some modification in order to obtain permeability […]
where VA is the volume in the acceptor well, VD is the volume in the donor well (cm3), A is the “effective area” of the membrane (cm2), t is the incubation time (s) and r the ratio between drug concentration in the acceptor and equilibrium concentration of the drug in the total volume (VD+VA). Drug concentration is estimated by using the peak area integration.
Membrane retentions (%) were calculated according to the following equation: […]
where r is the ratio between drug concentration in the acceptor and equilibrium concentration, D, A, and Eq represented drug concentration in the donor, acceptor and equilibrium solution, respectively. […]
15 min. The flow rate was 0.2 mL min-1 and injection volume was 5 μL. The instrument operated in positive mode and parameters were: detector 1850 V, drying gas pressure 25.0 psi, desolvation temperature 300.0 °C, nebulizing gas 40.0 psi, needle 5000 V and shield 600 V. Nitrogen was used as nebulizer gas and drying gas.
Collision induced dissociation was performed using Argon as the collision gas at a pressure of 1.8 mTorr in […]
Microsomal Stability Assay.
Each compound in DMSO solution was incubated at 37 °C for 60 min in 125 mM phosphate buffer (pH 7.4), 5 μL of human liver microsomal protein (0.2 mg mL-1), in the presence of a NADPH-generating system at a final […]
reaction was stopped by cooling on ice and adding 1.0 mL of acetonitrile. The reaction mixtures were then centrifuged, and the parent drug and metabolites were subsequently determined by LC-UV-MS. […]

| Compound | mean absorbance at 490 nm (MTS) ([1]; U87, 0,01 uM) | mean absorbance at 490 nm (MTS) ([1]; U87, 0,1 uM) | mean absorbance at 490 nm (MTS) ([1]; U87, 1 uM) | mean absorbance at 490 nm (MTS) ([1]; U87, 10 uM) | mean absorbance at 490 nm (MTS) ([1]; U87, 100 uM) | CC50 ([1]; U87, 72 h) | AppP (apparent permeability) [2] | Memb. Ret. % (membrane retention) [2] [%] | Papp at 5 h, 0.5 mM [2] [×10⁻⁶ cm/s] |
| --- | --- | --- | --- | --- | --- | --- | --- | --- | --- |
| CCCCc1cn(-c2ccc(NC(=O)Nc3ccccc3C(F)(F)F)cc2)nn1 [BA103, 1-(4-(4-Butyl-1H-1,2,3-triazol-1-yl)phenyl)-3-(2-(trifluoromethyl)phenyl)urea] | 1,598 | 1,132 | 0,959 | 0,804 | 0,566 | low micromolar range | good values of passive permeability | 23.9 | 7.47 |
| CCCCn1nnc(-c2ccc(NC(=O)Nc3ccccc3C(F)(F)F)cc2)n1 [Compound 6, 1-(4-(2-Butyl-2H-tetrazol-5-yl)phenyl)-3-(2-(trifluoromethyl)phenyl)urea] | 1,944 | 1,964 | 2,007 | 1,387 | 0,540 | – | good values of passive permeability | 21.6 | 10.2 |
| CCCCc1cn(-c2ccc(NC(=O)Nc3ccccc3C)cc2)nn1 [Compound 1, reference compound] | 2,027 | 2,018 | 2,000 | 1,584 | 0,465 | – | 2.86 ×10⁻⁶ cm/s | 19.1 | – |
| CC(C)CCc1cn(-c2ccc(NC(=O)Nc3cccc4cnccc34)cn2)nn1 [Compound 10, 1-(6-(4-Isopentyl-1H-1,2,3-triazol-1-yl)pyridin-3-yl)-3-(isoquinolin-5-yl)urea] | 1,863 | 1,379 | 1,165 | 0,858 | 0,467 | – | – | 11.3 | 1.21 |
| CCCCc1nnc(-c2ccc(NC(=O)Nc3ccccc3C(F)(F)F)cc2)[nH]1 [Compound 4, 1-(4-(5-Butyl-4H-1,2,4-triazol-3-yl)phenyl)-3-(2-(trifluoromethyl)phenyl)urea] | 1,906 | 1,293 | 0,941 | 0,784 | 0,162 | – | very low passive permeability | 2.3 | < 0.1 |
| CCCCc1nnc(-c2ccc(NC(=O)Nc3ccccc3C(F)(F)F)cc2)o1 [Compound 3, 1-(4-(5-Butyl-1,3,4-oxadiazol-2-yl)phenyl)-3-(2-(trifluoromethyl)phenyl)urea] | 1,350 | 1,140 | 1,178 | 1,065 | 0,568 | – | good values of passive permeability | 10.3 | 9.75 |
